From patent US20030219764A1, “Biological discovery using gene regulatory networks generated from multiple-disruption expression libraries” (priority 2001, published 2003)

Tests used:
[1] = tested on: yeast strain BY4741; experiment: Drug response full-genome cDNA microarray gene expression experiments; format: cell-based, Saccharomyces cerevisiae; conditions: among 552 genes which differed in expression between drug treated and normal yeast; dosages of 10, 50 and 100 mg in 10 ml of DMF; 0, 15, 30, 45 and 60 minutes
Protocol: The yeast strain used in this study is BY4741. To monitor the gene expression profile, cells were pre-grown at 30° C. in YPD (2% polypeptone, 1% yeast extract and 2% glucose) to mid-exponential phase and were exposed with Griseofulvin by adding it to the medium to the concentrations at 0, 10, 25, 50, and 100 mg/ml. The exposed cells were harvested at 0, 15, 30, 45 and 60 min after addition by Griseofulvin and used for RNA extraction. Total RNAs were extracted by the hot-phenol method.
We measured the quantities of 5871 mRNA species from 20 drug treated strains by cDNA microarray assay. A difference in fluorescent strength between Cy3, Cy5 causes bias of the expression quantity ratio. We normalized the expression quantity ratios of each expression profile. […] The logarithm value of the ratio was used to indicate the standard expression level, therefore we found the logarithm value of ratio and calculated the average and standard deviation of these log values (see table1). The Standard Deviation (SD) of expression levels of all spotted genes from the UME6 (YDR207C) disruptant expression array for which UME6 is defined as a “Global Regulator” in YPD^(33) disruptant was 0.4931, therefore we recognized that there are an unacceptable number of errors in array data whose overall SD was larger than 0.5 and eliminated such experiments from analysis. […]

[2] = tested on: CIK1; experiment: Boolean network analysis of joint drug response and gene disruption expression matrices (virtual gene); format: cell-based, Saccharomyces cerevisiae
From the text: In addition to the Boolean methods for gene disruption experiments reported elsewhere^(11), we created a gene expression matrix E from a set of the drug treatment experiments combined with disruptant expression data. In the case of drug generated perturbation, we created a “virtual” gene to represent the drug affect analogous to a gene disruption. We then were able to use standard disruption matrix algorithms designed for disruption based data.
In YPD, 314 genes were defined as “transcription factors”, and 98 of these have previously been studied for control mechanism. The expression profile data of 552 genes including the genes that are controlled by these 98 “transcription factors” were selected from 5871 profiles. Thus we constructed the gene regulatory network from the expression profile data set based on the values of these 552 genes in 120 gene disruption experiments and 20 drug treatment experiments.
However, the use of gene regulatory network models, combined with the drug perturbation data allows for a hierarchical gene regulatory view of the drug's interaction with genes in the transcriptome. To generate this gene network drug perturbation data, we first created a full genome expression library of 542 single-gene disruption mutants. The 120 array data selected from the library was logically joined with the array matrices generated from the Griseofulvin experiments. […]

[3] = tested on: mitotic spindle structure in yeast; experiment: Pathological and microscopic examination of Griseofulvin treated yeast versus CIK1 disrupted yeast; format: cell-based
From the text: CIK1 codes for a protein described in the yeast proteome database (YPD) as a coiled-coil protein of the spindle pole body involved in spindle formation and the congression (nuclear migration) step of karyogamy^(13). Since the action of Griseofulvin is known to affect mitotic spindle formation, which is in agreement with the function of CIK1^(14), we performed a pathological examination of a yeast strain with a disrupted CIK1 gene and yeast affected by Griseofulvin.

[4] = tested on: mitotic spindle structure in fungi; conditions: cited from earlier work

In the case of `COC1=CC(=O)C[C@@H](C)[C@]12Oc1c(Cl)c(OC)cc(OC)c1C2=O` [Griseofulvin], the “genes downregulated by over a 2 sigma threshold” value [1] is reported as 183 genes, the “suppression of CIK1 expression” value ([2]; among the 8 first-effect genes, across the experiments) is reported as “strongest suppression effects” and the “genes consistently and significantly suppressed as first effects” value ([2]; at each time and drug concentration) is reported as 8 genes. The “mitotic spindle structure compared with CIK1 deleted yeast” value ([3]; microscopic examination) was “very similar changes of the spindle body and surrounding organizational structures”, the lethality to yeast ([3]; normal physiological dosage) was “neither the treatment with Griseofulvin at normal physiological dosage nor the disruption of CIK1 are lethal” and the “effect on mitotic spindle structure” value [4] was “disrupts mitotic spindle structure in fungi to lead to metaphase arrest”.
